Results reported in patent publication US7019156B2, “Tumor inhibiting gallium compounds” (Faustus Forschungs Cie. Translational Cancer Research GmbH, priority 2001, dated 2006).

Tests used:
Assay type in all cases: cell-based
prostrate carcinomas = test: Tumor-inhibiting activity, selectivity for tumor types
[1] = tested on: macrocellular bronchial carcinomas; test: as above
[2] = tested on: stomach carcinoma xenograft; test: Tumor-inhibiting activity on xenograft; settings: compared with IC50 <0.003 mg/ml tumor types
mammary carcinomas = test: Tumor-inhibiting activity, selectivity for tumor types
[3] = tested on: ovarian (OVCAR3) cell line; test: Tumor-inhibiting activity on cell line; settings: compared with IC50 <0.003 mg/ml tumor types
melanoma xenograft = test: Tumor-inhibiting activity on xenograft; settings: compared with IC50 <0.003 mg/ml tumor types
[4] = tested on: renal-cell carcinoma xenografts; test: Tumor-inhibiting activity on xenografts; settings: one of two renal-cell carcinoma xenografts
[5] = tested on: parvicellular bronchial carcinoma cell line (DMS 114); test: Tumor-inhibiting activity on cell line; settings: compared with IC50 <0.003 mg/ml tumor types

IC50 (prostrate carcinomas): < 3 µg/mL | IC50 [1]: < 3 µg/mL | IC50 (mammary carcinomas): < 3 µg/mL
Substance: bis(2-acetylpyridine-4,4-dimethyl thiosemicarbazonato-N1, N2,S)gallium(III) tetrachlorogallate(III)
tumor-inhibiting effect [2]: Comparable effects | tumor-inhibiting effect [3]: Comparable effects | tumor-inhibiting effect (melanoma xenograft): Comparable effects | tumor-inhibiting activity [4]: above-average activity | tumor-inhibiting effect [5]: Comparable effects
